Here are results for one substance from patent US6939855B2, “Anti-inflammatory compositions and method” (Elan Pharmaceuticals, Inc., priority 1997, dated 2005).

The assay concerns human neutrophils. As to the kind of experiment: Expression of alpha-9 integrin on human neutrophils following activation. It is filed as cell-based. Particulars: compared to isotype control marker (FIG. 2). The protocol: In this experiment, alpha-9 subunit, alpha-4 subunit and beta-1 subunit were measured after reacting human neutrophils with fluorescently labeled antibodies specifically reactive with each of the foregoing subunits.
Formyl-Met-Leu-Phe (fMLP) is an activation factor that is involved in inflammation. […] This increased expression is consistent with alpha-9 involvement in activation of neutrophils during inflammation.

Formyl-Met-Leu-Phe [fMLP]: the “alpha-9 integrin expression following activation” value was “significantly and selectively increased”.
